This note sets out measurements from patent EP1131297B1, “CERTAIN SUBSTITUTED CAPROLACTAMS, PHARMACEUTICAL COMPOSITIONS CONTAINING THEM AND THEIR USE IN TREATING TUMORS” (Novartis AG, priority 1998, dated 2000).

As a reminder, the IC50 is the concentration that inhibits the measured activity by half. High values mean weaker potency in that assay, low ones greater potency in that assay.

For data set [1], the system named is MDA-MB-435 tumor xenografts. Description: Human tumor xenograft growth inhibition in athymic nude mouse model. The format is in vivo, athymic (nu/nu) mice. On the procedure: The histologic tumor type employed was MDA-MB-435 breast carcinoma.
Positive controls are carried out with doxorubicin administered 3 times per week i.v.
Anti-tumor activity was expressed as %T/C (Δ MTV of treated group ö Δ MTV of control group X100).
On the technique in general: A xenograft is tissue or cells of one species grown in another, often human tumour cells in immunodeficient mice.

Data set [2] relates to MDA-MB-435 breast carcinoma. The data set is described as follows: Anchorage Dependent Growth Monolayer Assay (ADGMA), MTS readout. The data set is classed as cell-based. The following applies: average ± S.D., 3-day exposure, A490. The text has this: As indicated above, all of the compounds of formula I, and their corresponding pharmaceutically acceptable acid addition salts, are anti-tumor agents and are, therefore, useful in inhibiting the growth of various lymphomas, sarcomas, carcinomas, myelomas, and leukemia cell lines. […] This assay was adapted from the 60 cell line assay used by the National Cancer Institute (NCI) with the following modifications: 1) a single cell line representative for the important tumor type, viz., MDA-MB-435 breast carcinoma was utilized; 2) a tetrazolium derivative, viz., MTS, was utilized to determine cell density.
The ADGMA compares the number of viable cells following a 3-day exposure to a test compound relative to a number of cells present at the time the test compound was added. […] The absorbance at 490 nm (A490) of the formazan derivative is proportional to the number of viable cells. The IC50 for a test compound is the concentration of compound required to reduce the final cell number to 50% of the final control cell number. If cell proliferation is inhibited, the assay further defines compounds as cytostatic (cell number after 3-day compound incubation >cell number at time of compound addition) or cytotoxic (cell number after 3-day compound incubation <cell number at time of compound addition).
The MDA-MB-435 breast carcinoma line was obtained from the American Type Culture Collection (ATCC) and used between passages 4-20 following thawing. MDA-MB-435 breast carcinoma was maintained and plated in DME/F12 medium containing 10% fetal bovine serum, 15 mM HEPES (pH=7.4), penicillin 100 units/mL, and streptomycin 100 µg/mL.
Cell lines are trypsinized and counted using a Coulter counter to determine plating densities. Cells are then plated in their respective maintenance media (100 µL/well) in 96 well plates at the following densities: MDA-MB-435, 3,000 cells/well. The number of cells plates as determined in preliminary experiments, results in cell densities of 75-90% of confluency by 4 days after plating. Initial cell densities, assayed one day after plating, are roughly 0.15-0.20 absorbance units greater than the media blank. Ninety-six well plates are seeded on day 0 and the test compounds are added on day 1. A control plate is created for each cell line that receives media only in row A and cells in row B. One day following plating, test compounds are added (in a final volume of 100 µL) to the test plates. Control plates receive 10 µL MTS mixture (prepared fresh on day of addition to cell plates at a ratio of 10 µL of a 0.92 mg/mL solution of PMS to a 190 µL of a 2 mg/mL solution of MTS) and 100 µL media. A490 of control plates is read 4h after MTS addition to determine initial cell density values for each cell line. Three days after addition of test compound, 10 µL/well of MTS mixture is added to the test plates and A490 is read 4h later. A490 values for wells containing cells are corrected for media absorbance, then normalized to initial density readings to determine percent net growth. IC50 values are determined from graphs of percent net growth as a function of compound concentration. Percent net growth is calculated as (Cell + Drug A490 - Initial A490/Cell + Drug Vehicle A490 - Initial A490).

Setting [3] is: 10 µmol/kg i.v., 3X/week for 3 weeks.
The mark [4] stands for this setting: 33 µmol/kg i.v., 3X/week for 3 weeks.
The mark [5] stands for this setting: Mus musculus, MDA-MB-435, iv, 504 h, 10 µmol/kg i.v., 3X/week for 3 weeks, * = statistically significant (p=<0.05), read-out: %T/C.
Setting [6] is: Mus musculus, MDA-MB-435, iv, 504 h, 33 µmol/kg i.v., 3X/week for 3 weeks, * = statistically significant (p=<0.05), read-out: %T/C.
[7] abbreviates: Mus musculus, MDA-MB-435, iv, 504 h, read-out: %T/C.
Setting [8] is: 2 mg/kg i.v., 3X/week for 3 weeks (positive control).

Like-named read-outs stand apart in the source and are kept apart here.

For `CO[C@@H](C(=O)N[C@H]1CC[C@@H](OC(=O)C2CCCCCC2)CNC1=O)[C@H](O)[C@@H](O)[C@H](O)/C=C/C(C)(C)C` [Ex. 3], in data set [1] (setting [3]), the Dead/Total is 0/8 and the “Δ MTV” value is 69 mm^3. Moreover, in data set [1] (setting [4]), the Dead/Total was 0/8 and the “Δ MTV” value is 49 mm^3. Also, the response vs control in vivo at 10 µmol/kg in data set [1] (setting [5]) stood at 39%. Besides, the response vs control in vivo at 33 µmol/kg in data set [1] (setting [6]) was 28%. The same compound returned an IC50 in data set [2] (Homo sapiens, MDA-MB-435, 72 h) of 32 ± 14 nM.

For the compound `CO[C@@H](C(=O)N[C@H]1CC[C@@H](OC(=O)CCc2cccnc2)CNC1=O)[C@H](O)[C@@H](O)[C@H](O)/C=C/C(C)(C)C` [Ex. 5, (2R, 3R, 4S, 5R, 6E)-3,4,5-trihydroxy-2-methoxy-8,8-dimethyl-N-[(3S, 6R)-hexahydro-2-oxo-6-(1-oxo-3-[3-pyridyl]propoxy)-2H-azepin-3-yl]non-6-enamide], the Dead/Total in data set [1] (setting [3]) and in data set [1] (setting [4]) was 0/8 throughout. For the same compound, the “Δ MTV” value in data set [1] (setting [3]) is 130 mm^3; in data set [1] (setting [4]), 62 mm^3. Moreover, the response vs control in vivo at 10 µmol/kg in data set [1] (setting [5]) turned out to be 92%. Further, in data set [1] (setting [6]), the response vs control in vivo at 33 µmol/kg turned out to be 44%. Also, inhibition in data set [2] (Homo sapiens, MDA-MB-435, 72 h) was half-maximal at 465 ± 204 nM (IC50).

Regarding `CO[C@@H](C(=O)N[C@H]1CC[C@@H](OC(=O)CC2CCCCC2)CNC1=O)[C@H](O)[C@@H](O)[C@H](O)/C=C/C(C)(C)C` [Ex. 6, (2R, 3R, 4S, 5R, 6E)-3,4,5-trihydroxy-2-methoxy-8,8-dimethyl-N-[(3S, 6R)-hexahydro-2-oxo-6-(cyclohexylmethylcarbonyl)oxy-2H-azepin-3-yl]non-6-enamide], in data set [1] (setting [3]), the Dead/Total is given as 0/8 and the “Δ MTV” value stood at 66 mm^3. In addition, in data set [1] (setting [4]), the Dead/Total is 0/8 and the “Δ MTV” value is listed as 48 mm^3. The response vs control in vivo at 10 µmol/kg in data set [1] (setting [5]) was 47%. In addition, the response vs control in vivo at 33 µmol/kg in data set [1] (setting [6]) was found to be 34%. The same compound gave a half-maximal inhibitory concentration (IC50) in data set [2] (Homo sapiens, MDA-MB-435, 72 h) of 65 ± 1 nM.

With `CO[C@@H](C(=O)N[C@H]1CC[C@@H](OC(=O)Cc2ccccc2)CNC1=O)[C@H](O)[C@@H](O)[C@H](O)/C=C/C(C)(C)C` [Ex. 7, (2R, 3R, 4S, 5R, 6E)-3,4,5-trihydroxy-2-methoxy-8,8-dimethyl-N-[(3S, 6R)-hexahydro-2-oxo-6-(1-oxo-2-phenylethoxy)-2H-azepin-3-yl]non-6-enamide], in data set [1] (setting [3]), the Dead/Total was 0/8 and the “Δ MTV” value was determined as 101 mm^3. Besides, in data set [1] (setting [4]), the Dead/Total is on record as 0/8 and the “Δ MTV” value is listed as 61 mm^3. The response vs control in vivo at 10 µmol/kg in data set [1] (setting [5]) turned out to be 72%. Moreover, in data set [1] (setting [6]), the response vs control in vivo at 33 µmol/kg turned out to be 43%. In data set [2] (Homo sapiens, MDA-MB-435, 72 h), this compound gave an IC50 of 262 ± 70 nM.

Take `CO[C@@H](C(=O)N[C@H]1CC[C@@H](OC(=O)Cc2ccc(Cl)c(Cl)c2)CNC1=O)[C@H](O)[C@@H](O)[C@H](O)/C=C/C(C)(C)C` [Ex. 8, (2R, 3R, 4S, 5R, 6E)-3,4,5-trihydroxy-2-methoxy-8,8-dimethyl-N-[(3S, 6R)-hexahydro-2-oxo-6-(1-oxo-2-[3,4-dichlorophenyl]ethoxy)-2H-azepin-3-yl]non-6-enamide]: the Dead/Total in data set [1] (setting [3]) and in data set [1] (setting [4]) was 0/8 in each case. Also, the “Δ MTV” value in data set [1] (setting [3]) is listed as 87 mm^3; in data set [1] (setting [4]) it was 94 mm^3. The response vs control in vivo at 10 µmol/kg in data set [1] (setting [5]) worked out at 62%. Also, the response vs control in vivo at 33 µmol/kg in data set [1] (setting [6]) was determined as 67%. In data set [2] (Homo sapiens, MDA-MB-435, 72 h), this compound came in with an IC50 of 175 ± 7 nM.

As to `COc1ccc(CC(=O)O[C@@H]2CC[C@H](NC(=O)[C@H](OC)[C@H](O)[C@@H](O)[C@H](O)/C=C/C(C)(C)C)C(=O)NC2)cc1` [Ex. 9, (2R, 3R, 4S, 5R, 6E)-3,4,5-trihydroxy-2-methoxy-8,8-dimethyl-N-[(3S, 6R)-hexahydro-2-oxo-6-(1-oxo-2-[4-methoxyphenyl]ethoxy)-2H-azepin-3-yl]non-6-enamide], in data set [1] (setting [3]), the Dead/Total is given as 0/8 and the “Δ MTV” value is on record as 107 mm^3. Moreover, in data set [1] (setting [4]), the Dead/Total is listed as 0/8 and the “Δ MTV” value worked out at 68 mm^3. Also, in data set [1] (setting [5]), the response vs control in vivo at 10 µmol/kg amounted to 76%. In addition, in data set [1] (setting [6]), the response vs control in vivo at 33 µmol/kg came out at 48%. In data set [2] (Homo sapiens, MDA-MB-435, 72 h), this compound had an IC50 of 335 ± 141 nM.

In the case of `CCCCCCCCCCOc1ccc(C(=O)O[C@@H]2CC[C@H](NC(=O)[C@H](OC)[C@H](O)[C@@H](O)[C@H](O)/C=C/C(C)(C)C)C(=O)NC2)cc1` [Ex. 10, (2R, 3R, 4S, 5R, 6E)-3,4,5-trihydroxy-2-methoxy-8,8-dimethyl-N-[(3S, 6R)-hexahydro-2-oxo-6-([4-n-decyloxyphenyl]carbonyl)oxy-2H-azepin-3-yl]non-6-enamide], in data set [1] (setting [3]), the Dead/Total is 0/8 and the “Δ MTV” value came to 115 mm^3. Further, in data set [1] (setting [4]), the Dead/Total is reported as 0/8 and the “Δ MTV” value was determined as 4 mm^3. Also, the response vs control in vivo at 10 µmol/kg in data set [1] (setting [5]) amounted to 64%. For the same compound, the response vs control in vivo at 33 µmol/kg in data set [1] (setting [6]) was found to be 2%. In data set [2] (Homo sapiens, MDA-MB-435, 72 h), this compound came in with an IC50 of 8 ± 4 nM.

For the compound `CO[C@@H](C(=O)N[C@H]1CC[C@@H](OC(=O)/C=C/c2ccccc2)CNC1=O)[C@H](O)[C@@H](O)[C@H](O)/C=C/C(C)(C)C` [Ex. 11], in data set [1] (setting [3]), the Dead/Total is listed as 0/8 and the “Δ MTV” value was determined as 135 mm^3. In data set [1] (setting [4]), the Dead/Total is given as 0/8 and the “Δ MTV” value is 76 mm^3. Moreover, in data set [1] (setting [7]), the response vs control in vivo at 10 µmol/kg was determined as 76% and the response vs control in vivo at 33 µmol/kg was 43%. Inhibition in data set [2] (Homo sapiens, MDA-MB-435, 72 h) was half-maximal at 19 ± 5 nM (IC50).

For the compound `CCCCCCCCCCc1ccc(C(=O)O[C@@H]2CC[C@H](NC(=O)[C@H](OC)[C@H](O)[C@@H](O)[C@H](O)/C=C/C(C)(C)C)C(=O)NC2)cc1` [Ex. 12, (2R, 3R, 4S, 5R, 6E)-3,4,5-trihydroxy-2-methoxy-8,8-dimethyl-N-[(3S, 6R)-hexahydro-2-oxo-6-([4-n-decylphenyl]carbonyl)oxy-2H-azepin-3-yl]non-6-enamide], in data set [1] (setting [3]), the Dead/Total was 0/8 and the “Δ MTV” value worked out at 78 mm^3. In addition, in data set [1] (setting [4]), the Dead/Total was 0/8 and the “Δ MTV” value worked out at 11 mm^3. In data set [1] (setting [7]), the response vs control in vivo at 10 µmol/kg stood at 52% and the response vs control in vivo at 33 µmol/kg amounted to 7%. This compound displayed an IC50 in data set [2] (Homo sapiens, MDA-MB-435, 72 h) of 34 ± 46 nM.

Turning to `CO[C@@H](C(=O)N[C@H]1CC[C@@H](OC(=O)Cc2ccsc2)CNC1=O)[C@H](O)[C@@H](O)[C@H](O)/C=C/C(C)(C)C` [Ex. 13, (2R, 3R, 4S, 5R, 6E)-3,4,5-trihydroxy-2-methoxy-8,8-dimethyl-N-[(3S, 6R)-hexahydro-2-oxo-6-(1-oxo-3-[3-thiophenyl]ethoxy)-2H-azepin-3-yl]non-6-enamide], the IC50 in data set [2] came out at 300 nM.

Take `COc1cccc2c1C(=O)c1c(O)c3c(c(O)c1C2=O)C[C@@](O)(C(=O)CO)C[C@@H]3O[C@H]1C[C@H](N)[C@H](O)[C@H](C)O1` [doxorubicin, reference compound]: in data set [1] (setting [8]), the Dead/Total was 0/8 and the “Δ MTV” value came out at 74 mm^3. The response vs control in vivo at 2 mg/kg in data set [1] (Mus musculus, MDA-MB-435, iv, 504 h, 2 mg/kg i.v., 3X/week for 3 weeks (positive control), * = statistically significant (p=<0.05), read-out: %T/C) came to 42%. Besides, the 50% inhibitory concentration (IC50) in data set [2] (Homo sapiens, MDA-MB-435, 72 h) stood at 137 ± 105 nM.

In data set [2], “(2R, 3R, 4S, 5R, 6E)-3,4,5-trihydroxy-2-methoxy-8,8-dimethyl-N-[(3S, 6R)-hexahydro-2-oxo-6-(1-oxo-3-[3-indolyl]ethoxy)-2H-azepin-3-yl]non-6-enamide [Ex. 14]” came in with a half-maximal inhibitory concentration (IC50) of 1240 ± 200 nM.
